The values that follow come from article PMC10761072, “Post-transcriptional capping generates coenzyme A-linked RNA” (RNA Biology, 2023).

The target of the assay is T1, phosphopantetheine adenylyltransferase (PPAT, CoaD) (Escherichia coli, UniProt P0A6I6).
T1 construct: recombinant full-length enzyme expressed from coaD plasmid and purified; hexamer
In words: capping of […]-labelled 5-mer pppRNA with pPant, denaturing PAGE. Type of assay: biochemical. The following applies: read-out: half-maximal inhibition.

T1 sequence (P0A6I6 whole entry): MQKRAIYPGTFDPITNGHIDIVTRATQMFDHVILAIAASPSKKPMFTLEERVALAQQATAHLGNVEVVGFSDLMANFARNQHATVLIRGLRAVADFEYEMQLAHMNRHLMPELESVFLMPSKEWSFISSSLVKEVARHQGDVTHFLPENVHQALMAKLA

Turning to `Nc1ncnc2c1ncn2[C@@H]1O[C@H](COP(=O)(O)OP(=O)(O)OP(=O)(O)O)[C@@H](O)[C@H]1O` [ATP], the IC50 is about 5 µM.
